Test results reported in article PMC6881533 (Journal of medicinal chemistry, 2019).
Changes are numbered by the printed parent chain. Blank lines part the entries; values can stand above or below the compound they belong to.

Assays:
[1] = quoted in legend of Figure 1, reference not given; cited from earlier work
[2] = target: T1, T318I mutant of human CYP51 (Homo sapiens, UniProt Q16850, T324I); experiment: CYP51 activity assay, inhibition of the T318I mutant; format: biochemical
T1 sequence (Q16850 1-509 T324I): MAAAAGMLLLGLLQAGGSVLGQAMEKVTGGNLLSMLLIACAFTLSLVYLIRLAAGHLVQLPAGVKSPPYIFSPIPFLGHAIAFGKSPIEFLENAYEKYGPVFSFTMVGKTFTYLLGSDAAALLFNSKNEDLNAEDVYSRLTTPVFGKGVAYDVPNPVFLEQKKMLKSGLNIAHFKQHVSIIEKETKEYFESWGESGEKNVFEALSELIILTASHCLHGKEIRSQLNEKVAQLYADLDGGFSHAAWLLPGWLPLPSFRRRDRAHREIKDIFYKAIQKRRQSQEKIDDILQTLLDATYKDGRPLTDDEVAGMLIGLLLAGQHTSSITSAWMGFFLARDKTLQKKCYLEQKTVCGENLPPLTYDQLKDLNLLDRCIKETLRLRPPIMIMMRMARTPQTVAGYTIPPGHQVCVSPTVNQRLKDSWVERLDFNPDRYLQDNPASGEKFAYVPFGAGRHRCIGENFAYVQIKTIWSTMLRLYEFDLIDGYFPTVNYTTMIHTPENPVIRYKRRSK

[3] = target: T1, T318I mutant of human CYP51; experiment: CYP51 inhibitor binding assay, T318I mutant
human CYP51 (WT) = target: T2, human CYP51 (WT) (Homo sapiens, UniProt Q16850); experiment: CYP51 activity assay, inhibition of lanosterol 14α-demethylation; format: biochemical; settings: WT enzyme, 1 h reaction
T2 sequence (Q16850 1-509): T1 sequence (Q16850 1-509 T324I) with I324T

human CYP51 = target: T3, human CYP51 (Homo sapiens, UniProt Q16850); experiment: CYP51 inhibitor binding assay
T3 sequence (Q16850 1-509): T1 sequence (Q16850 1-509 T324I) with I324T

SMILES: CC[C@@H]([C@H](C)O)n1ncn(-c2ccc(N3CCN(c4ccc(OC[C@@H]5CO[C@@](Cn6cncn6)(c6ccc(F)cc6F)C5)cc4)CC3)cc2)c1=O [posaconazole]
log P [1]: 5.5

IC50 [2]: > 25 µM | Kd [3]: 0.4 µM | increase of binding affinity for the mutant ([3]; T318I vs WT enzyme): approximately 12 fold | Kd (human CYP51): 4.7 µM
SMILES: O=C(N[C@@H](Cn1ccnc1)c1ccc(Cl)cc1Cl)c1ccc(-c2nnc(-c3ccccc3)o2)cc1 [VNI, (R)-N-(1-(2,4-dichlorophenyl)-2-(1 H-imidazol-1-yl)ethyl)-4-(5-phenyl-1,3,4-oxadiazol-2-yl)benzamide]
inhibition of human CYP51 activity (in words) (human CYP51 (WT)): does not inhibit the WT human CYP51 at all

SMILES: CCC(C)n1ncn(-c2ccc(N3CCN(c4ccc(OCC5COC(Cn6cncn6)(c6ccc(Cl)cc6Cl)O5)cc4)CC3)cc2)c1=O (stereo not drawn) [itraconazole]
log P [1]: 6.8

SMILES: C[C@@H](NCCCc1cccc(C(F)(F)F)c1)c1cccc2ccccc12 [cinacalcet]
log P [1]: 6.5

Soret band maximum (human CYP51; inhibitor-bound human CYP51, red shift from 417 nm): 425 nm
SMILES: O=C(N[C@@H](Cn1ccnc1)c1ccc(-c2ccc(F)cc2)cc1F)c1ccc(-c2nnc(-c3ccccc3)o2)cc1 [VFV]
